Experimental data from patent publication US20200055883A1, “CYCLIC DI-NUCLEOTIDES DERIVATIVE FOR THE TREATMENT OF CANCER” (Eisai R&D Management Co., Ltd., priority 2017, published 2020).
Like-named read-outs stand apart in the source and are kept apart here. Values belong to the compound of their own block, whether it stands above or below them.

What was measured:
Human STING HAQ = Human STING HAQ (Homo sapiens, UniProt Q86WV6, G230A/H232R/R293Q/R71H); experiment: HAQ STING agonist activity reporter assay (THP1-Dual cells)
WT Human STING = WT Human STING (Homo sapiens, UniProt Q86WV6, H232R); experiment: STING variant specific reporter assay, WT-STING (THP1-Dual KO-STING cells); conditions: Human STING EC50 (μM) WT, ammonium salt form of each compound
AQ Human STING = AQ Human STING (Homo sapiens, UniProt Q86WV6, G230A/H232R/R293Q); experiment: STING variant specific reporter assay, AQ-STING (THP1-Dual KO-STING cells); conditions: ammonium salt form of each compound
REF Human STING = REF Human STING (Homo sapiens, UniProt Q86WV6); experiment: STING variant specific reporter assay, REF-STING (THP1-Dual KO-STING cells)
[1] = Human STING EC50 (μM) HAQ, Table 5, ammonium salt form of each compound, 20 hrs
[2] = Human STING EC50 (μM) AQ, Table 5
[3] = hSTING EC50 (μM) HAQ, Table 6, ammonium salt form, except Compounds 26, 33, 34 tested as bis-TEA salts
[4] = Human STING EC50 (μM) HAQ, Table 4, ammonium salt form of each compound, 20 hrs
[5] = Human STING EC50 (μM) AQ, Table 4
[6] = hSTING EC50 (μM) HAQ, Table 8, ammonium salt form of each compound

Chain of AQ Human STING (Q86WV6 whole entry G230A/H232R/R293Q): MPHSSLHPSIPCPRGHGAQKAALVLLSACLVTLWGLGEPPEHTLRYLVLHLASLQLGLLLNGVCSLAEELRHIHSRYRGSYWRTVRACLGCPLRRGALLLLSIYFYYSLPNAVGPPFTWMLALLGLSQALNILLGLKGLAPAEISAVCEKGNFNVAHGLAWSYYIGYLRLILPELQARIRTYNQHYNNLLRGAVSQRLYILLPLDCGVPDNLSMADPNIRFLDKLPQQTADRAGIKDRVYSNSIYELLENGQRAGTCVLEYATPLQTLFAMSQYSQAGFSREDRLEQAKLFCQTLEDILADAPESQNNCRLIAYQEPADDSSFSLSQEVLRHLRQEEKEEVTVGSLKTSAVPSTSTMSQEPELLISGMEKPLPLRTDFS
Chain of WT Human STING (Q86WV6 whole entry H232R): as the sequence (Q86WV6 whole entry G230A/H232R/R293Q) above, with A230G, Q293R counted along it
Chain of REF Human STING (Q86WV6 whole entry): as the sequence (Q86WV6 whole entry G230A/H232R/R293Q) above, with A230G, R232H, Q293R counted along it
Chain of Human STING HAQ (Q86WV6 whole entry R71H/G230A/H232R/R293Q): as the sequence (Q86WV6 whole entry G230A/H232R/R293Q) above, with R71H counted along it

EC50 (Human STING HAQ; [1]): 69.7 µM | EC50 (WT Human STING; Table 5): 68.7 µM | EC50 (AQ Human STING; [2]): 81 µM | EC50 (REF Human STING): > 100 µM
Structure (SMILES): O=P1(S)OC[C@H]2O[C@@H]3[C@H](F)[C@@H]2OP(=O)(S)OC[C@H]2OC([C@H](F)[C@@H]2O1)n1cnc2c(ncnc21)NCC/C=C/CNc1ncnc2c1ncn23 (single isomer, unassigned) [Compound 8]

EC50 (Human STING HAQ; [1]): 6.8 µM
Structure (SMILES): O=P1(S)OC[C@H]2O[C@@H]3[C@H](F)[C@@H]2OP(=O)(S)OC[C@H]2OC([C@H](F)[C@@H]2O1)n1cnc2c(ncnc21)NCC/C=C/CNc1ncnc2c1ncn23 (single isomer, unassigned) [Compound 11]

EC50 (Human STING HAQ; [1]): 8.2 µM
Structure (SMILES): O=P1(S)OC[C@H]2O[C@@H]3[C@H](F)[C@@H]2OP(=O)(S)OC[C@H]2OC([C@H](F)[C@@H]2O1)n1cnc2c(ncnc21)NCC/C=C/CNc1ncnc2c1ncn23 (single isomer, unassigned) [Compound 12]

EC50 (Human STING HAQ; [3]): 2.3 µM
Structure (SMILES): O=P1(S)OC[C@H]2O[C@@H]3[C@H](F)[C@@H]2OP(=O)(S)OC[C@H]2O[C@H]([C@H](F)[C@@H]2O1)n1cnc2c(ncnc21)NC/C=C/COc1ncnc2c1ncn23 (single isomer, unassigned) [Compound 18]

EC50 (Human STING HAQ; [3]): 94.1 µM
Structure (SMILES): O=P1(S)OC[C@H]2O[C@@H]3[C@H](F)[C@@H]2OP(=O)(S)OC[C@H]2O[C@H]([C@H](F)[C@@H]2O1)n1cnc2c(ncnc21)NC/C=C/COc1ncnc2c1ncn23 (single isomer, unassigned) [Compound 19]

EC50 (Human STING HAQ; [3]): 2.8 µM
Structure (SMILES): O=P1(S)OC[C@H]2O[C@@H]3[C@H](F)[C@@H]2OP(=O)(S)OC[C@H]2O[C@H]([C@H](F)[C@@H]2O1)n1cnc2c(ncnc21)NC/C=C/COc1ncnc2c1ncn23 (single isomer, unassigned) [Compound 20]

Structure (SMILES): Nc1nc2c3ncn(c3n1)[C@@H]1O[C@@H]3COP(O)(=S)O[C@H]4[C@@H](F)[C@@H](O[C@@H]4COP(O)(=S)O[C@H]3[C@H]1F)n1cnc3c(ncnc31)NC/C=C/CO2 (single isomer, unassigned) [Compound 21]
EC50 (Human STING HAQ; hSTING EC50 (μM) HAQ): 83.3 µM

Structure (SMILES): Nc1nc2c3ncn(c3n1)[C@@H]1O[C@@H]3COP(O)(=S)O[C@H]4[C@@H](F)[C@@H](O[C@@H]4COP(O)(=S)O[C@H]3[C@H]1F)n1cnc3c(ncnc31)NC/C=C/CO2 (single isomer, unassigned) [Compound 22]
EC50 (Human STING HAQ; hSTING EC50 (μM) HAQ): 41.2 µM

Structure (SMILES): O=[P@]1(S)OC[C@H]2OC3[C@H](F)[C@@H]2O[P@](=O)(S)OC[C@H]2O[C@H]([C@H](F)[C@@H]2O1)n1cnc2c(ncnc21)NCC1NC1CNc1ncnc2c1ncn23 (single isomer, unassigned) [Compound 35]
EC50 (Human STING HAQ; [3]): 44.5 µM

Structure (SMILES): O=[P@]1(S)OC[C@H]2OC3[C@H](F)[C@@H]2O[P@](=O)(S)OC[C@H]2O[C@H]([C@H](F)[C@@H]2O1)n1cnc2c(ncnc21)NCC1NC1CNc1ncnc2c1ncn23 (single isomer, unassigned) [Compound 36]
EC50 (Human STING HAQ; [3]): 31.4 µM

EC50 (Human STING HAQ; [1]): 87.2 µM | EC50 (WT Human STING; Table 5): > 100 µM | EC50 (AQ Human STING; [2]): 82.2 µM
Structure (SMILES): O=P1(S)OC[C@H]2O[C@@H]3[C@H](F)[C@@H]2OP(=O)(S)OC[C@H]2OC([C@H](F)[C@@H]2O1)n1cnc2c(ncnc21)NCC/C=C/CNc1ncnc2c1ncn23 (single isomer, unassigned) [Compound 37]

EC50 (Human STING HAQ; [1]): 10.5 µM | EC50 (WT Human STING; Table 5): 5.7 µM | EC50 (AQ Human STING; [2]): 9 µM | EC50 (REF Human STING): 42 µM
Structure (SMILES): O=[P@]1(S)OC[C@H]2OC3[C@H](F)[C@@H]2O[P@](=O)(S)OC[C@H]2O[C@H]([C@H](F)[C@@H]2O1)n1cnc2c(ncnc21)NCCCCNc1ncnc2c1ncn23 [Compound 6]

EC50 (Human STING HAQ; [1]): 39.2 µM | EC50 (WT Human STING; Table 5): 18 µM | EC50 (AQ Human STING; [2]): 30.9 µM | EC50 (REF Human STING): 31.7 µM
Structure (SMILES): O=P1(O)OC[C@H]2O[C@@H]3[C@H](F)[C@@H]2OP(=O)(O)OC[C@H]2OC([C@H](F)[C@@H]2O1)n1cnc2c(ncnc21)NC/C=C/CNc1ncnc2c1ncn23 [Compound 9]

EC50 (Human STING HAQ; [4]): 26.7 µM
Structure (SMILES): O=[P@]1(S)OC[C@H]2OC3[C@H](O)[C@@H]2O[P@](=O)(S)OC[C@H]2O[C@H]([C@H](O1)[C@@H]2O)n1cnc2c(ncnc21)NC/C=C/CNc1ncnc2c1ncn23 [Compound 13]

EC50 (Human STING HAQ; [4]): 58.2 µM | EC50 (WT Human STING; Table 4): 69.8 µM | EC50 (AQ Human STING; read-out: Human STING EC50 (μM) AQ, Table 4): > 100 µM | EC50 (REF Human STING; read-out: Human STING EC50 (μM) REF, Table 4, ammonium salt form of each compound): > 100 µM
Structure (SMILES): O=[P@@]1(S)OC[C@H]2OC3[C@H](O)[C@@H]2O[P@](=O)(S)OC[C@H]2O[C@H]([C@H](O1)[C@@H]2O)n1cnc2c(ncnc21)NC/C=C/CNc1ncnc2c1ncn23 [Compound 14]

EC50 (Human STING HAQ; [4]): 24.7 µM | EC50 (WT Human STING; Table 4): 11.6 µM | EC50 (AQ Human STING; [5]): 13.1 µM | EC50 (REF Human STING): 66.7 µM
Structure (SMILES): O=[P@]1(S)OC[C@H]2OC3[C@H](F)[C@@H]2O[P@](=O)(S)OC[C@H]2O[C@H]([C@H](O1)[C@@H]2O)n1cnc2c(ncnc21)NC/C=C/CNc1ncnc2c1ncn23 [Compound 15]

EC50 (Human STING HAQ; [4]): 28.8 µM | EC50 (WT Human STING; Table 4): 25.7 µM | EC50 (AQ Human STING; [5]): 20.4 µM | EC50 (REF Human STING): 66.7 µM
Structure (SMILES): O=[P@@]1(S)OC[C@H]2OC3[C@H](F)[C@@H]2O[P@](=O)(S)OC[C@H]2O[C@H]([C@H](O1)[C@@H]2O)n1cnc2c(ncnc21)NC/C=C/CNc1ncnc2c1ncn23 [Compound 16]

Structure (SMILES): Nc1nc2c3ncn(c3n1)[C@@H]1O[C@@H]3COP(O)(=S)O[C@H]4[C@@H](F)[C@@H](O[C@@H]4COP(O)(=S)O[C@H]3[C@H]1F)n1cnc3c(ncnc31)NC/C=C/CO2 (stereo partly shown) [Compound 23]
EC50 (Human STING HAQ; hSTING EC50 (μM) HAQ): 62.3 µM

EC50 (Human STING HAQ; [3]): 2.3 µM
Structure (SMILES): O=[P@@]1(S)OC[C@H]2O[C@@H]3[C@H](F)[C@@H]2O[P@](=O)(S)OC[C@H]2OC([C@H](F)[C@@H]2O1)n1cnc2c(ncnc21)OC/C=C/COc1ncnc2c1ncn23 [Compound 26]

Structure (SMILES): O=P1(O)OC[C@H]2OC3[C@H](F)[C@@H]2O[P@@](O)(=S)OC[C@H]2O[C@H]([C@H](F)[C@@H]2O1)n1cnc2c(ncnc21)NC/C=C/CNc1ncnc2c1ncn23 [Compound 27]
EC50 (Human STING HAQ; hSTING EC50 (μM) HAQ): 9.8 µM

Structure (SMILES): O=P1(O)OC[C@H]2OC3[C@H](F)[C@@H]2O[P@](O)(=S)OC[C@H]2O[C@H]([C@H](F)[C@@H]2O1)n1cnc2c(ncnc21)NC/C=C/CNc1ncnc2c1ncn23 [Compound 28]
EC50 (Human STING HAQ; hSTING EC50 (μM) HAQ): 10.2 µM

EC50 (Human STING HAQ; [3]): 0.62 µM
Structure (SMILES): O=[P@]1(S)OC[C@H]2OC3[C@H](F)[C@@H]2O[P@](=O)(S)OC[C@H]2O[C@H]([C@H](F)[C@@H]2O1)n1cnc2c(ncnc21)NCC#CCNc1ncnc2c1ncn23 [Compound 29]

EC50 (Human STING HAQ; hSTING EC50 (μM) HAQ, Table 7, ammonium salt form of each compound): 20.2 µM
Structure (SMILES): O=P1(S)OC[C@H]2OC3[C@H](OP(=O)(S)OC[C@H]4O[C@H]([C@H](O1)[C@@H]4O)n1cnc4c(ncnc41)NC/C=C/CNc1ncnc4c1ncn43)[C@@H]2O (stereo partly shown) [Compound 31]

EC50 (Human STING HAQ; [3]): 15.7 µM | EC50 (REF Human STING; read-out: hSTING EC50 (μM) REF, Table 6, ammonium salt form, except Compounds 26, 33, 34 tested as bis-TEA salts): > 100 µM
Structure (SMILES): O=[P@]1(S)OC[C@H]2OC3[C@H](F)[C@@H]2O[P@](=O)(S)OC[C@H]2O[C@H]([C@H](F)[C@@H]2O1)n1cnc2c(ncnc21)NC[C@H](O)[C@@H](O)CNc1ncnc2c1ncn23 [Compound 32]

EC50 (Human STING HAQ; [3]): 21.5 µM
Structure (SMILES): O=[P@]1(S)OC[C@H]2OC3[C@H](F)[C@@H]2O[P@](=O)(S)OC[C@H]2O[C@H]([C@H](F)[C@@H]2O1)n1cnc2c(ncnc21)CC/C=C/CCc1ncnc2c1ncn23 [Compound 33]

EC50 (Human STING HAQ; [3]): 2.3 µM
Structure (SMILES): O=[P@@]1(S)OC[C@H]2O[C@@H]3[C@H](F)[C@@H]2O[P@](=O)(S)OC[C@H]2OC([C@H](F)[C@@H]2O1)n1cnc2c(ncnc21)CC/C=C/CCc1ncnc2c1ncn23 [Compound 34]

EC50 (Human STING HAQ; [6]): 79.9 µM
Structure (SMILES): O=[P@]1(S)N[C@@H]2[C@H]3CO[P@](=O)(S)N[C@H]4[C@@H](O)[C@@H](O[C@@H]4CO1)n1cnc4c(ncnc41)NC/C=C/CNc1ncnc4c1ncn4C(O3)[C@@H]2O [Compound 38]

EC50 (Human STING HAQ; [6]): 29.6 µM
Structure (SMILES): O=P1(S)N[C@@H]2[C@H]3COP(=O)(S)N[C@H]4[C@@H](O)[C@@H](O[C@@H]4CO1)n1cnc4c(ncnc41)NC/C=C/CNc1ncnc4c1ncn4C(O3)[C@@H]2O (stereo partly shown) [Compound 39]
